The values below come from PubChem BioAssay AID256 (DTP/NCI, 2004).

Values joined by “and” are separate entries in the source; they are usually repeats but may differ in a detail not shown here. Identical values can stand only once. Inconclusive results and toxic doses are left out.

The assay concerns CD2F1 mice, L1210 leukemia ip, survival T/C. The assay is described as follows: NCI In Vivo Anticancer Drug Screen. Data for tumor model L1210 Leukemia (intraperitoneal) in CD2F1 (CDF1) mice. Particulars: higher = longer survival. As for the experimental part: The antitumor activity of compounds was measured in mice bearing transplantable tumors. Survival or tumor size were measured and the results are expressed as the measurement made in the treated group (T) divided by the measurement made in the vehicle treated control group (C). The tumor model used in this assay is L1210 Leukemia (intraperitoneal) in CD2F1 (CDF1) mice

Where [1] appears, read: endpoint: mean survival time, dose: 100.0 mg/kg/injection, schedule: Q01DX009 (ip), vehicle: saline with Tween-80.
Setting [2] is: endpoint: mean survival time, dose: 200.0 mg/kg/injection, schedule: Q01DX009 (ip), vehicle: saline with Tween-80.
Where [3] appears, read: endpoint: mean survival time, dose: 400.0 mg/kg/injection, schedule: Q01DX009 (ip), vehicle: saline with Tween-80.
[4] abbreviates: endpoint: mean survival time, dose: 6.25 mg/kg/injection, schedule: Q01DX009 (ip), vehicle: saline.
The mark [5] stands for this setting: endpoint: mean survival time, dose: 12.5 mg/kg/injection, schedule: Q01DX009 (ip), vehicle: saline.
[6] abbreviates: endpoint: mean survival time, dose: 100.0 mg/kg/injection, schedule: Q01DX001 (ip), vehicle: saline with Tween-80.
[7] abbreviates: endpoint: mean survival time, dose: 200.0 mg/kg/injection, schedule: Q01DX001 (ip), vehicle: saline with Tween-80.
[8] abbreviates: endpoint: mean survival time, dose: 50.0 mg/kg/injection, schedule: Q01DX009 (ip), vehicle: saline.
Setting [9] is: endpoint: mean survival time, dose: 100.0 mg/kg/injection, schedule: Q01DX009 (ip), vehicle: saline.
Setting [10] is: endpoint: mean survival time, dose: 50.0 mg/kg/injection, schedule: Q01DX009 (ip), vehicle: saline with Tween-80.

Take `CC(=O)OCC1OC(Oc2c(Br)cc(Br)cc2Br)C(OC(C)=O)C(OC(C)=O)C1OC(C)=O` (stereo unspecified): the T/C runs as follows: under setting [1], 96 % of control; under setting [2], 94 % of control; under setting [3], 96 % of control.

For `S=c1nccc[nH]1.[Pd]`, the T/C was 97 % of control (endpoint: mean survival time, dose: 3.13 mg/kg/injection, schedule: Q04DX003 (ip), vehicle: distilled water + Tween-80); 94 % of control (endpoint: mean survival time, dose: 6.25 mg/kg/injection, schedule: Q04DX003 (ip), vehicle: distilled water + Tween-80); 89 % of control (endpoint: mean survival time, dose: 12.5 mg/kg/injection, schedule: Q04DX003 (ip), vehicle: distilled water + Tween-80); 89 % of control (endpoint: mean survival time, dose: 25.0 mg/kg/injection, schedule: Q04DX003 (ip), vehicle: distilled water + Tween-80); 89 % of control (endpoint: mean survival time, dose: 50.0 mg/kg/injection, schedule: Q04DX003 (ip), vehicle: distilled water + Tween-80).

Regarding `N=C(N)CCCCCCCCC(=N)N`, the T/C (endpoint: mean survival time, dose: 0.78 mg/kg/injection, schedule: Q01DX009 (ip), vehicle: saline) was 162 % of control; the T/C (endpoint: mean survival time, dose: 1.56 mg/kg/injection, schedule: Q01DX009 (ip), vehicle: saline) was 96 % of control; the T/C (endpoint: mean survival time, dose: 3.12 mg/kg/injection, schedule: Q01DX009 (ip), vehicle: saline) is 104 % of control; the T/C under setting [4] is 106 % of control; the T/C under setting [5] was 115 % of control.

With `Nc1cccc2c1-c1ccccc1C2`, the T/C reads like this: (endpoint: mean survival time, dose: 50.0 mg/kg/injection, schedule: Q04DX003 (ip), vehicle: Klucel (hydroxypropylcellulose) (HPC)) 105 % of control; (endpoint: mean survival time, dose: 100.0 mg/kg/injection, schedule: Q04DX003 (ip), vehicle: Klucel (hydroxypropylcellulose) (HPC)) 96 % of control; (endpoint: mean survival time, dose: 200.0 mg/kg/injection, schedule: Q04DX003 (ip), vehicle: Klucel (hydroxypropylcellulose) (HPC)) 102 % of control.

As for `COC(=O)C(Cc1ccc(N(CCCl)CCCl)cc1)N=NNc1nc[nH]c1C(N)=O` (stereo unspecified), the T/C is, setting by setting: (endpoint: mean survival time, dose: 88.0 mg/kg/injection, schedule: Q01DX001 (ip), vehicle: steriod suspending solution) 116 % of control; (endpoint: mean survival time, dose: 133.0 mg/kg/injection, schedule: Q01DX001 (ip), vehicle: steriod suspending solution) 115 % of control; (endpoint: mean survival time, dose: 300.0 mg/kg/injection, schedule: Q01DX001 (ip), vehicle: steriod suspending solution) 116 % of control.

`Cc1ccc([N+](=O)[O-])cc1NC(=O)Oc1ccc(Cl)cc1`: the T/C is 98 % of control under setting [1]; 92 % of control (endpoint: mean survival time, dose: 100.0 mg/kg/injection, schedule: Q04DX003 (ip), vehicle: saline with Tween-80); 98 % of control under setting [2]; 95 % of control (endpoint: mean survival time, dose: 200.0 mg/kg/injection, schedule: Q04DX003 (ip), vehicle: saline with Tween-80); 91 % of control under setting [3]; 88 % of control (endpoint: mean survival time, dose: 400.0 mg/kg/injection, schedule: Q04DX003 (ip), vehicle: saline with Tween-80).

Consider `O=C1NC(=NC2CCCCC2)C2(CCN(CC3COc4ccccc4O3)CC2)N1c1ccccc1` (stereo unspecified), for which the T/C under setting [6] was 91 % of control; the T/C under setting [7] is 95 % of control; the T/C (endpoint: mean survival time, dose: 400.0 mg/kg/injection, schedule: Q01DX001 (ip), vehicle: saline with Tween-80) was 101 % of control.

On to `O=C(c1cccnc1)C1Cc2ccccc2C1=O` (stereo unspecified), for which the T/C (endpoint: mean survival time, dose: 100.0 mg/kg/injection, schedule: Q01DX009 (ip), vehicle: saline sonified) is 102 % of control; the T/C (endpoint: mean survival time, dose: 200.0 mg/kg/injection, schedule: Q01DX009 (ip), vehicle: saline sonified) is 96 % of control; the T/C (endpoint: mean survival time, dose: 400.0 mg/kg/injection, schedule: Q01DX009 (ip), vehicle: saline sonified) is 94 % of control.

For the molecule `CCNC(=O)OCCc1c2ccccc2nc2ccccc12`, the T/C runs as follows: (endpoint: mean survival time, dose: 100.0 mg/kg/injection, schedule: Q04DX002 (ip), vehicle: other) 105 % of control and 102 % of control; (endpoint: mean survival time, dose: 200.0 mg/kg/injection, schedule: Q04DX002 (ip), vehicle: other) 97 % of control and 90 % of control; (endpoint: mean survival time, dose: 400.0 mg/kg/injection, schedule: Q04DX002 (ip), vehicle: other) 94 % of control and 97 % of control.

With `Cc1cc2[nH]cnc2cc1Cl`, the T/C reads like this: under setting [8], 98 % of control; under setting [9], 106 % of control.

Take `COc1ccc(OCCOC(=O)Nc2ccc(Cl)cc2OC)cc1`: the T/C under setting [10] is 89 % of control, the T/C under setting [1] was 93 % of control and the T/C under setting [2] is 93 % of control.

`Cc1cn(C2CC3[O][Sn]([c]4ccccc4)([c]4ccccc4)[O]CC3O2)c(=O)[nH]c1=O` (stereo unspecified): the T/C by setting is: (endpoint: mean survival time, dose: 0.75 mg/kg/injection, schedule: Q01DX005 (ip), vehicle: other) 90 % of control; (endpoint: mean survival time, dose: 0.78 mg/kg/injection, schedule: Q01DX005 (ip), vehicle: other) 96 % of control and 100 % of control; (endpoint: mean survival time, dose: 1.5 mg/kg/injection, schedule: Q01DX005 (ip), vehicle: other) 90 % of control; (endpoint: mean survival time, dose: 1.5 mg/kg/injection, schedule: Q01DX005 (ip), vehicle: saline) 89 % of control; (endpoint: mean survival time, dose: 3.0 mg/kg/injection, schedule: Q01DX005 (ip), vehicle: other) 95 % of control; (endpoint: mean survival time, dose: 3.0 mg/kg/injection, schedule: Q01DX005 (ip), vehicle: saline) 89 % of control. The T/C is 97 % of control (endpoint: mean survival time, dose: 6.0 mg/kg/injection, schedule: Q01DX005 (ip), vehicle: saline); 203 % of control and 102 % of control and 105 % of control (endpoint: mean survival time, dose: 6.25 mg/kg/injection, schedule: Q01DX005 (ip), vehicle: other); 109 % of control under setting [4]; 100 % of control (endpoint: mean survival time, dose: 12.0 mg/kg/injection, schedule: Q01DX005 (ip), vehicle: other); 104 % of control (endpoint: mean survival time, dose: 12.0 mg/kg/injection, schedule: Q01DX005 (ip), vehicle: saline); 107 % of control under setting [5]. Also, the T/C (endpoint: mean survival time, dose: 24.0 mg/kg/injection, schedule: Q01DX005 (ip), vehicle: other) is 104 % of control; the T/C (endpoint: mean survival time, dose: 24.0 mg/kg/injection, schedule: Q01DX005 (ip), vehicle: saline) was 103 % of control; the T/C (endpoint: mean survival time, dose: 25.0 mg/kg/injection, schedule: Q01DX009 (ip), vehicle: saline) is 113 % of control; the T/C under setting [8] was 110 % of control; the T/C under setting [9] was 103 % of control; the T/C (endpoint: mean survival time, dose: 200.0 mg/kg/injection, schedule: Q01DX009 (ip), vehicle: saline) is 115 % of control.

On to `CN1c2c(nc(N)[nH]c2=O)NCC1CCNc1ccc(C(=O)NC(CCC(=O)O)C(=O)O)cc1` (stereo unspecified), for which the T/C (endpoint: mean survival time, dose: 25.0 mg/kg/injection, schedule: Q01DX009 (ip), vehicle: Klucel (hydroxypropylcellulose) (HPC)) was 118 % of control; the T/C (endpoint: mean survival time, dose: 50.0 mg/kg/injection, schedule: Q01DX009 (ip), vehicle: Klucel (hydroxypropylcellulose) (HPC)) was 123 % of control; the T/C (endpoint: mean survival time, dose: 200.0 mg/kg/injection, schedule: Q01DX009 (ip), vehicle: sodium bicarbonate) was 119 % of control; the T/C (endpoint: mean survival time, dose: 1250.0 mg/kg/injection, schedule: Q01DX009 (ip), vehicle: sodium bicarbonate) was 155 % of control.

`CC(C)C(O)C(C)(C)c1nc2ccccc2[nH]1` (stereo unspecified): the T/C is 100 % of control under setting [6] and 94 % of control under setting [7].

Regarding `C/C=C/C(O)C1CCCCC1` (stereo unspecified), the T/C by setting is: under setting [10], 103 % of control; under setting [1], 98 % of control; under setting [2], 107 % of control.

In the case of `O=S1(=O)C[CH-]C1.[C-]#[O+].[C-]#[O+].[C-]#[O+].[W].[c-]1[c-][c-][cH-][c-]1`, the T/C is 93 % of control (endpoint: mean survival time, dose: 50.0 mg/kg/injection, schedule: Q04DX002 (ip), vehicle: saline with Tween-80); 101 % of control (endpoint: mean survival time, dose: 100.0 mg/kg/injection, schedule: Q04DX002 (ip), vehicle: saline with Tween-80); 89 % of control (endpoint: mean survival time, dose: 200.0 mg/kg/injection, schedule: Q04DX002 (ip), vehicle: saline with Tween-80).

`NCCCC(N)(C(=O)O)C(F)F` (stereo unspecified): the T/C is 102 % of control (endpoint: median survival time, dose: 50.0 mg/kg/injection, schedule: Q01DX009 (ip), vehicle: distilled water + alcohol); 102 % of control (endpoint: median survival time, dose: 100.0 mg/kg/injection, schedule: Q01DX009 (ip), vehicle: distilled water + alcohol); 105 % of control (endpoint: median survival time, dose: 200.0 mg/kg/injection, schedule: Q01DX009 (ip), vehicle: distilled water + alcohol); 113 % of control (endpoint: median survival time, dose: 400.0 mg/kg/injection, schedule: Q01DX009 (ip), vehicle: distilled water + alcohol); 103 % of control (endpoint: median survival time, dose: 800.0 mg/kg/injection, schedule: Q01DX009 (ip), vehicle: distilled water + alcohol); 103 % of control (endpoint: median survival time, dose: 1.0 % drug in feed or water or air, schedule: Q#C X 1 (adlb), vehicle: water). Moreover, the T/C (endpoint: median survival time, dose: 3.0 % drug in feed or water or air, schedule: Q#C X 1 (adlb), vehicle: water) is 116 % of control.
